Data reported in ChEMBL document CHEMBL5634138, “Discovery of a novel BLT2 antagonist for the treatment of inflammatory airway diseases” (Eur J Med Chem, 2023).
pKi: −log10 of the molar value. Values after ≈ are worked out from the molar mass of the structure shown. Active and inactive are the calls of the source. No cut-off for these calls is given here.

Key:
[1] = (§1) Cytotoxicity against CHO cells assessed as inhibition of cell growth at 10 uM incubated overnight by MTS assay reltive to control; type: toxicity, cell-based, Cricetulus griseus; conditions: chinese hamster, CHO cells, read-out: Activity
CHO [2] = assay: as §1; type: toxicity, cell-based, Cricetulus griseus; conditions: chinese hamster, cho, 10 µM
[3] = Solubility of the compound in deionized water; type: physicochemical; conditions: buffer
[4] = Metabolic stability in human liver microsomes assessed as parent compound remaining measured after 30 mins in absence of NADPH; type: ADME, Microsome; conditions: read-out: Stability
[5] = Metabolic stability in human liver microsomes assessed as parent compound remaining measured after 30 mins in presence of NADPH; type: ADME, Microsome; conditions: read-out: Stability
[6] = Metabolic stability in human liver microsomes assessed as parent compound remaining measured after 30 mins in absence of […]; type: ADME, Microsome; conditions: read-out: Stability
[7] = Metabolic stability in human liver microsomes assessed as parent compound remaining measured after 30 mins in presence of […]; type: ADME, Microsome; conditions: read-out: Stability
[8] = Metabolic stability in mouse liver microsomes assessed as parent compound remaining measured after 30 mins in absence of NADPH; type: ADME, Microsome; conditions: read-out: Stability
[9] = Metabolic stability in mouse liver microsomes assessed as parent compound remaining measured after 30 mins in presence of NADPH; type: ADME, Microsome; conditions: read-out: Stability
[10] = Metabolic stability in mouse liver microsomes assessed as parent compound remaining measured after 30 mins in absence of […]; type: ADME, Microsome; conditions: read-out: Stability
[11] = Metabolic stability in mouse liver microsomes assessed as parent compound remaining measured after 30 mins in presence of […]; type: ADME, Microsome; conditions: read-out: Stability
[12] = biological target: Leukotriene B4 receptor 1 (Homo sapiens) (UniProt Q15722); assay: Antagonist activity at human BLT1 expressed in CHO cells assessed as inhibition of LTB4 induced cell migration at 10 uM measured after 3 hrs by chemotaxis assay relative to control; type: cell-based; design: scale not given: the % may be the effect or the level left; conditions: filed as antagonist
CHO [13] = assay: Inhibition of Akt phosphorylation (unknown origin) expressed in CHO cells harbouring BLT1 by Western blot analysis; type: cell-based; conditions: Homo sapiens
CHO [14] = assay: Inhibition of Akt phosphorylation (unknown origin) expressed in CHO cells harbouring BLT2 by Western blot analysis; type: cell-based; conditions: Homo sapiens
Mus musculus [15] = assay: Anti-asthmatic activity against OVA/LPS induced BALB/c mouse model assessed as reduction in bronchial hyper-response at 10 mg/kg, ip for one hr before every challenge on day 14 to 16 and measured after 17 days relative to control; type: functional; design: scale not given: the % may be the effect or the level left; conditions: time 17 day
Mus musculus [16] = assay: Anti-asthmatic activity against OVA/LPS induced BALB/c mouse model assessed as decrease in bronchoalveolar lavage fluid (BALF) IL-4 level at 10 mg/kg, ip by ELISA method relative to control; type: functional; design: scale not given: the % may be the effect or the level left
Mus musculus [17] = assay: Anti-asthmatic activity against OVA/LPS induced BALB/c mouse model assessed as decrease in bronchoalveolar lavage fluid (BALF) IL-5 level at 10 mg/kg, ip by ELISA method relative to control; type: functional; design: scale not given: the % may be the effect or the level left
Mus musculus [18] = assay: Anti-asthmatic activity against OVA/LPS induced BALB/c mouse model assessed as decrease in bronchoalveolar lavage fluid (BALF) IL-13 level at 10 mg/kg, ip by ELISA method relative to control; type: functional; design: scale not given: the % may be the effect or the level left
[19] = Half life in rat at 2 mg/kg, iv; type: ADME, organism-based; conditions: in vivo
[20] = Clearance in rat at 2 mg/kg, iv; type: ADME, organism-based; conditions: in vivo
[21] = Apparent volume of distribution in rat at 2 mg/kg, iv; type: ADME, organism-based; conditions: in vivo, read-out: Vd(app)
[22] = AUC infinity in rat at 2 mg/kg, iv; type: ADME, organism-based; conditions: in vivo
[23] = AUC infinity in rat at 20 mg/kg, po administered as solution; type: ADME, organism-based; conditions: in vivo
[24] = Cmax in rat at 20 mg/kg, po administered as solution; type: ADME, organism-based; conditions: in vivo
[25] = Tmax in rat at 20 mg/kg, po administered as solution; type: ADME, organism-based; conditions: in vivo
[26] = Oral bioavailability in rat at 20 mg/kg administered as solution; type: ADME, organism-based; conditions: in vivo
[27] = AUC infinity in rat at 20 mg/kg, po administered as suspension; type: ADME, organism-based; conditions: in vivo
[28] = Cmax in rat at 20 mg/kg, po administered as suspension; type: ADME, organism-based; conditions: in vivo
[29] = Tmax in rat at 20 mg/kg, po administered as suspension; type: ADME, organism-based; conditions: in vivo
[30] = Oral bioavailability in rat at 20 mg/kg administered as suspension; type: ADME, organism-based; conditions: in vivo
Mus musculus [31] = assay: Anti-asthmatic activity against OVA/LPS induced BALB/c mouse model assessed as decrease in bronchoalveolar lavage fluid (BALF) IL-4 level at 20 mg/kg, ip by ELISA method relative to control; type: functional; design: scale not given: the % may be the effect or the level left
Mus musculus [32] = assay: Anti-asthmatic activity against OVA/LPS induced BALB/c mouse model assessed as decrease in bronchoalveolar lavage fluid (BALF) IL-5 level at 20 mg/kg, ip by ELISA method relative to control; type: functional; design: scale not given: the % may be the effect or the level left
Mus musculus [33] = assay: Anti-asthmatic activity against OVA/LPS induced BALB/c mouse model assessed as decrease in bronchoalveolar lavage fluid (BALF) IL-13 level at 20 mg/kg, ip by ELISA method relative to control; type: functional; design: scale not given: the % may be the effect or the level left
[34] = biological target: Leukotriene B4 receptor 1 (Homo sapiens) (UniProt Q15722); assay: Antagonist activity at human BLT1 expressed in CHO cells assessed as inhibition of LTB4 induced cell migration at 10 uM measured after 3 hrs by chemotaxis assay; type: cell-based
[35] = biological target: T1, Leukotriene B4 receptor 2 (Homo sapiens, UniProt Q9NPC1); assay: Displacement of 3H-LTB4 from human BLT2 expressed in CHO cell membrane assessed as inhibition constant incubated for 60 mins by liquid scintillation counter analysis
T1 sequence (Q9NPC1 whole entry): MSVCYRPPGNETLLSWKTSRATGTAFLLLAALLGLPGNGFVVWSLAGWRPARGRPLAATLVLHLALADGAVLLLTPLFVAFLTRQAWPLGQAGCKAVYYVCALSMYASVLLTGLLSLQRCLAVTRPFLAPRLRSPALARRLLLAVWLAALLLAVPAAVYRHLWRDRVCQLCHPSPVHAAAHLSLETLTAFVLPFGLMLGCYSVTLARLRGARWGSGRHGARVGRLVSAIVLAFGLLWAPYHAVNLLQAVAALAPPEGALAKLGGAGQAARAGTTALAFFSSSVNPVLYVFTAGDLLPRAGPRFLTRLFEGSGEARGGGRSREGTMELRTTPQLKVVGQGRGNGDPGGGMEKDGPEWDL

Sequence of Leukotriene B4 receptor 1 (Homo sapiens) (Q15722 whole entry): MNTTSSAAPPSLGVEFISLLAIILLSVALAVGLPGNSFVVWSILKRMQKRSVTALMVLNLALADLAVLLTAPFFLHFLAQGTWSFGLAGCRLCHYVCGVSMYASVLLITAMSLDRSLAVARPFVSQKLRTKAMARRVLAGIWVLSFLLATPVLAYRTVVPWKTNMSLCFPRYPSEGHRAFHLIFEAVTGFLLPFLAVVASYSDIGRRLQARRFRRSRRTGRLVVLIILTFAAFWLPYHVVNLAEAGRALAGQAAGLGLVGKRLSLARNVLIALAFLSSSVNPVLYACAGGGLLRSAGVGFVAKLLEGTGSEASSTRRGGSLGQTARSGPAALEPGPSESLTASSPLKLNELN

## CCCCC(=O)N(Cc1ccc(-c2ccc(OC)cc2)cc1)c1cccc(F)c1
[1]
  inhibition at 10 µM: 7%

## CCCCC(=O)N(Cc1ccc(-c2ccc(O)cc2)nc1)c1cccc(F)c1
CHO [2]
  Activity: Non-Toxic

## CCCCC(=O)N(Cc1ccc(-c2ccc(C(=O)O)cc2)cc1)c1ccccc1
CHO [2]
  Activity: Non-Toxic

## CCCCC(=O)N(Cc1ccc(-c2ccc(O)cc2)cc1)c1cccc(C)c1
[1]
  inhibition at 10 µM: 24%

## CCCCC(=O)N(Cc1ccc(-c2ccc(C(=O)O)cc2)cc1)c1ccc(F)cc1
CHO [2]
  Activity: Non-Toxic

## CCCCC(=O)N(Cc1ccc(-c2ccc(O/C=C/C(=O)O)cc2)cc1)c1cccc(F)c1
CHO [2]
  Activity: Non-Toxic

## CCCCC(=O)N(Cc1ccc(-c2ccc(OC)cc2)cc1)c1cccc(C)c1
CHO [2]
  Activity: Non-Toxic

## CCCCC(=O)N(Cc1ccc(-c2ccc(C(=O)O)cc2)cc1)c1cccc(F)c1
CHO [2]
  Activity: Non-Toxic

## CCCCC(=O)N(Cc1ccc(-c2ccc(O)cc2)cc1)c1cccc(F)c1
[3]
  solubility: < 0.02 µg/mL
CHO [2]
  Activity: Non-Toxic
[4]
  remaining at 0.5 h: 96.8%
[5]
  remaining at 0.5 h: 33.5%
[6]
  remaining at 0.5 h: 98.8%
[7]
  remaining at 0.5 h: 92.8%
[8]
  remaining at 0.5 h: 84.2%
[9]
  remaining at 0.5 h: 2.2%
[10]
  remaining at 0.5 h: 90.4%
[11]
  remaining at 0.5 h: 70.1%
[12]
  Activity: 90%
CHO [13]
  inhibition: Active
CHO [14]
  inhibition: Active

## CCCCC(=O)N(Cc1ccc(-c2ccc(O)cc2)cc1)c1cccc(C(F)(F)F)c1
[1]
  inhibition at 10 µM: 5%

## CCCCC(=O)N(Cc1ccc(-c2ccc(OCC(=O)O)cc2)cc1)c1ccccc1
CHO [2]
  Activity: Non-Toxic

## CCCCC(=O)N(Cc1ccc(-c2ccc(OCCC(=O)O)cc2)cc1)c1cccc(F)c1
CHO [2]
  Activity: Non-Toxic

## CCCCC(=O)N(Cc1ccc(-c2ccc(C(=O)O)cc2)cc1)c1ccccc1F
CHO [2]
  Activity: Non-Toxic

## CCc1cc(C(C)=O)c(O)cc1OCCCCCC(C)(C)c1nn[nH]n1 [LY-255283]
Mus musculus [15]
  Activity: 69%
Mus musculus [16]
  Activity: 38%
Mus musculus [17]
  Activity: 48%
Mus musculus [18]
  Activity: 38%

## CCCCC(=O)N(Cc1ccc(-c2ccc(OCC(=O)O)cc2)cc1)c1cccc(F)c1
[3]
  solubility: 0.033 µg/mL (≈ 0.0758 µM)
CHO [2]
  Activity: Non-Toxic
[4]
  remaining at 0.5 h: 98.1%
[5]
  remaining at 0.5 h: 74.5%
[6]
  remaining at 0.5 h: 98.8%
[7]
  remaining at 0.5 h: 94%
[8]
  remaining at 0.5 h: 88.3%
[9]
  remaining at 0.5 h: 67.8%
[10]
  remaining at 0.5 h: 92.9%
[11]
  remaining at 0.5 h: 91.7%
[19]
  half-life: 1.4 h
[20]
  clearance: 54 mL/min/kg
[21]
  Vd: 4.2 L/kg
[22]
  AUC(0-inf): 600 ng·h/mL
[23]
  AUC(0-inf): 2200 ng·h/mL
[24]
  Cmax: 1100 ng/mL
[25]
  Tmax: 1 h
[26]
  bioavailability: 35%
[27]
  AUC(0-inf): 1500 ng·h/mL
[28]
  Cmax: 700 ng/mL
[29]
  Tmax: 0.9 h
[30]
  bioavailability: 24%
Mus musculus [15]
  Activity: 59%
Mus musculus [16]
  Activity: 25%
Mus musculus [17]
  Activity: 33%
Mus musculus [18]
  Activity: 19%
Mus musculus [31]
  Activity: 35%
Mus musculus [32]
  Activity: 46%
Mus musculus [33]
  Activity: 38%
[34]
  Activity: inactive
CHO [14]
  inhibition: Active
[35]
  pKi: 6.88

## CCCCC(=O)N(Cc1ccc(-c2ccc(C(=O)NCC(=O)O)cc2)cc1)c1ccccc1
CHO [2]
  Activity: Non-Toxic
